# Laboratory results from US6262123A, “Ortho-substituted benzoylguanidines, process for their preparation, their use as a medicament or diagnostic, and medicament comprising them” (Aventis Pharma Deutschland GmbH, priority 1996, dated 2001).
# Where a name gives a salt, the structure may show the parent alone.
# Target: T1, rabbit erythrocyte Na^+ /H^+ exchanger (Oryctolagus cuniculus, UniProt P23791)
# T1 construct: determine the Na^+ influx into the erythrocytes by way of Na^+ /H^+ exchange; endogenous in cells; host or cells: erythrocytes in whole blood of cholesterol-fed New Zealand White rabbits
# Test: Inhibition of the rabbit erythrocyte Na^+ /H^+ exchanger (amiloride-sensitive Na^+ influx, flame photometry)
# Format: cell-based, New Zealand White rabbits
# Settings: erythrocytes of cholesterol-fed rabbits; pH 7.4, 37° C., hyperosmolar salt/sucrose medium
# Source text: Inhibition of the rabbit erythrocyte Na^+ /H^+ exchanger New Zealand White rabbits (Ivanovas) were given a standard diet containing 2% cholesterol for six weeks in order to activate the Na^+ /H^+ exchange and thereby render it possible to use flame photometry to determine the Na^+ influx into the erythrocytes by way of Na^+ /H^+ exchange. The blood was withdrawn from the aural arteries and rendered incoagulable by adding 25 IU of potassium heparin. One part of each sample was used for determining the hematocrit in duplicate by means of centrifugation. Aliquots of in each case 100 μl were used for measuring the initial Na^+ content of the erythrocytes.
# In order to determine the amiloride-sensitive sodium influx, 100 μl of each blood sample were in each case incubated, at pH 7.4 and 37° C., in 5 ml of a hyperosmolar salt/sucrose medium (mmol/l: 140 NaCl, 3 KCl, 150 sucrose, 0.1 ouabain, 20 tris(hydroxymethyl)aminomethane). After that, the erythrocytes were washed three times with an ice-cold solution of MgCl2 /ouabain (mmol/l: 112 MgCl2, 0.1 ouabain) and hemolyzed in 2.0 ml of distilled water. The intracellular sodium content was determined by flame photometry.
# The net influx of Na^+ was calculated from the difference between the initial sodium values and the sodium content of the erythrocytes after incubation. The amiloride-inhibitable sodium influx was obtained from the difference in the sodium content of the erythrocytes after incubating with and without 3×10^-4 mol/l amiloride. The same procedure was adopted in the case of the novel compounds.
# T1 sequence (P23791 whole entry): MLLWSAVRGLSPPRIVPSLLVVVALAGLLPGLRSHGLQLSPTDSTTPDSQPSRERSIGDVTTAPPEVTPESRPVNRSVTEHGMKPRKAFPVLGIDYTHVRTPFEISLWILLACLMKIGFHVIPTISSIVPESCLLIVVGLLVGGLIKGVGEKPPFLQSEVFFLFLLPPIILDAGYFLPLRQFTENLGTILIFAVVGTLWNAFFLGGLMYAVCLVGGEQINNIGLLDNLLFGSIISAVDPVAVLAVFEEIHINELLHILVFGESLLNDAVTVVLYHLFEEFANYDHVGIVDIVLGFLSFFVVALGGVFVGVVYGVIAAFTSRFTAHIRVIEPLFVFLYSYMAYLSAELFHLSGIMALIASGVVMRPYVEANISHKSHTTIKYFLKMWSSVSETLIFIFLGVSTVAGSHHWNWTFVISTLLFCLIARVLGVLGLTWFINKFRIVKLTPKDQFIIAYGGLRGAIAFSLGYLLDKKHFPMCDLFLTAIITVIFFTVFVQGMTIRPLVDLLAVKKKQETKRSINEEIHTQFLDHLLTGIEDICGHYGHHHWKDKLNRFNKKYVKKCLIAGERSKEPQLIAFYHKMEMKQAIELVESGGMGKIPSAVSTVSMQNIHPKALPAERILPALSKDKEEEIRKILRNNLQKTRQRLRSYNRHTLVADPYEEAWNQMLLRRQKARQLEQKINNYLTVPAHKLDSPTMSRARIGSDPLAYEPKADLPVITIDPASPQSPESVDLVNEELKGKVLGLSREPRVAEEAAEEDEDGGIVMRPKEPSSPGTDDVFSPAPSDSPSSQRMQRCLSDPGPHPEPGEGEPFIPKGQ
row,IC50,SMILES
1,4000 nM,"NC(N)=NC(=O)c1ccc(O)cc1Cl [Example 1, 2-Chloro4-hydroxybenzoylguanidine hydrochloride]"
2,240 nM,"NC(N)=NC(=O)c1cc(I)c(O)cc1Cl [Example 2, 2-Chloro-4-hydroxy-5-iodobenzoylguanidine hydrochloride]"
3,100 nM,"NC(N)=NC(=O)c1cc(I)c(O)c(I)c1Cl [Example 3, 2-Chloro4-hydroxy-3,5-diiodobenzoylguanidine hydrochloride]"
4,140 nM,"NC(N)=NC(=O)c1cc(C(F)(F)F)c(O)cc1Cl [Example 4, 2-Chloro4-hydroxy-5-trifluoromethylbenzoylguanidine hydrochloride]"
